Assay results taken from the NIST ThermoML archive (doi:10.1016/j.jct.2016.07.051).
± gives the expanded uncertainty stated by the source.

Assay: mn = molality of the nth substance listed, in mol/kg
Conditions: 100 kPa, Liquid; for speed of sound: Frequency=3 MHz, Sing-around technique in a fixed-path interferometer; for mass density: Vibrating tube method

O=C[C@H](O)[C@@H](O)[C@H](O)[C@H](O)CO [D-glucose] + O
Conditions | mass density [kg/m3] | speed of sound [m/s]
293.15 K, m1 = 0.05008 | 1001.67 ± 0.46 | –
293.15 K, m1 = 0.0698 | 1003.02 ± 0.46 | 1487 ± 1.9
293.15 K, m1 = 0.09118 | 1004.47 ± 0.46 | 1488.3 ± 1.9
293.15 K, m1 = 0.1108 | 1005.8 ± 0.46 | 1489.5 ± 1.9
293.15 K, m1 = 0.1312 | – | 1490.8 ± 1.9
298.15 K, m1 = 0.05008 | 1000.44 ± 0.46 | –
298.15 K, m1 = 0.0698 | 1001.76 ± 0.46 | 1501.4 ± 1.9
298.15 K, m1 = 0.09118 | 1003.17 ± 0.46 | 1502.7 ± 1.9
298.15 K, m1 = 0.1108 | 1004.47 ± 0.46 | 1504 ± 1.9
298.15 K, m1 = 0.1312 | 1005.8 ± 0.46 | 1505.3 ± 1.9
303.15 K, m1 = 0.05008 | 999.038 ± 0.45 | 1512.2 ± 1.9
303.15 K, m1 = 0.0698 | 1000.35 ± 0.45 | 1513.4 ± 1.9
303.15 K, m1 = 0.09118 | 1001.76 ± 0.46 | 1514.7 ± 1.9
303.15 K, m1 = 0.1108 | 1003.05 ± 0.46 | 1515.9 ± 1.9
303.15 K, m1 = 0.1312 | 1004.38 ± 0.46 | 1517.2 ± 1.9
303.15 K, m1 = 0.1499 | 1005.58 ± 0.46 | 1518.3 ± 1.9
308.15 K, m1 = 0.05008 | 997.396 ± 0.45 | 1522.8 ± 1.9
308.15 K, m1 = 0.0698 | 998.701 ± 0.45 | 1524 ± 1.9
308.15 K, m1 = 0.09118 | 1000.11 ± 0.45 | 1525.4 ± 1.9
308.15 K, m1 = 0.1108 | 1001.39 ± 0.45 | 1526.6 ± 1.9
308.15 K, m1 = 0.1312 | 1002.71 ± 0.46 | –
308.15 K, m1 = 0.1499 | 1003.91 ± 0.46 | 1529 ± 1.9
313.15 K, m1 = 0.05008 | 995.571 ± 0.45 | 1531.6 ± 1.9
313.15 K, m1 = 0.0698 | 996.873 ± 0.45 | 1532.8 ± 1.9
313.15 K, m1 = 0.09118 | 998.274 ± 0.45 | 1534 ± 1.9
313.15 K, m1 = 0.1108 | 999.553 ± 0.45 | 1535.1 ± 1.9
313.15 K, m1 = 0.1312 | 1000.87 ± 0.45 | 1536.2 ± 1.9
313.15 K, m1 = 0.1499 | 1002.06 ± 0.45 | 1537.3 ± 1.9
318.15 K, m1 = 0.05008 | 993.55 ± 0.45 | –
318.15 K, m1 = 0.0698 | 994.845 ± 0.45 | 1540.2 ± 1.9
318.15 K, m1 = 0.09118 | 996.24 ± 0.45 | 1541.4 ± 1.9
318.15 K, m1 = 0.1108 | – | 1542.4 ± 1.9
318.15 K, m1 = 0.1312 | 998.817 ± 0.45 | –
318.15 K, m1 = 0.1499 | 1000 ± 0.45 | 1544.6 ± 1.9
323.15 K, m1 = 0.05008 | 991.349 ± 0.45 | 1545.3 ± 1.9
323.15 K, m1 = 0.0698 | 992.639 ± 0.45 | 1546.3 ± 1.9
323.15 K, m1 = 0.09118 | 994.028 ± 0.45 | 1547.4 ± 1.9
323.15 K, m1 = 0.1108 | 995.295 ± 0.45 | 1548.5 ± 1.9
323.15 K, m1 = 0.1312 | 996.6 ± 0.45 | 1549.5 ± 1.9
323.15 K, m1 = 0.1499 | 997.788 ± 0.45 | 1550.5 ± 1.9

CCC[NH3+].O=C[O-] [propylammonium formate] + O
Conditions | mass density, m1 = 0.1 [kg/m3] | mass density, m1 = 0.2 [kg/m3] | mass density, m1 = 0.3 [kg/m3] | mass density, m1 = 0.4 [kg/m3] | speed of sound, m1 = 0.1 [m/s] | speed of sound, m1 = 0.2 [m/s] | speed of sound, m1 = 0.3 [m/s] | speed of sound, m1 = 0.4 [m/s]
293.15 K | 999.222 ± 0.46 | 1000.07 ± 0.46 | 1000.91 ± 0.46 | 1001.81 ± 0.46 | 1492.2 ± 1.9 | 1500.4 ± 1.9 | 1508.2 ± 1.9 | 1516.9 ± 1.9
298.15 K | 997.851 ± 0.45 | 998.673 ± 0.45 | 999.689 ± 0.46 | 1000.56 ± 0.46 | 1505.7 ± 1.9 | 1513.4 ± 1.9 | 1520.8 ± 1.9 | 1528.9 ± 1.9
303.15 K | 996.637 ± 0.46 | 997.448 ± 0.46 | 998.238 ± 0.45 | 999.087 ± 0.46 | 1517.5 ± 1.9 | 1524.9 ± 1.9 | 1531.8 ± 1.9 | 1539.4 ± 1.9
308.15 K | 994.884 ± 0.45 | 995.676 ± 0.45 | 996.581 ± 0.45 | 997.41 ± 0.45 | 1527.8 ± 1.9 | 1534.7 ± 1.9 | 1541.3 ± 1.9 | 1548.4 ± 1.9
313.15 K | 993.191 ± 0.45 | 993.97 ± 0.45 | 994.725 ± 0.45 | 995.542 ± 0.45 | 1536.4 ± 1.9 | 1543 ± 1.9 | 1549.3 ± 1.9 | 1555.9 ± 1.9
318.15 K | 990.986 ± 0.45 | 991.749 ± 0.45 | 992.694 ± 0.45 | 993.502 ± 0.45 | 1543.6 ± 1.9 | 1549.9 ± 1.9 | 1555.9 ± 1.9 | 1562 ± 1.9
323.15 K | 988.793 ± 0.45 | 989.611 ± 0.45 | 990.498 ± 0.45 | 991.295 ± 0.45 | 1550.5 ± 1.9 | 1555.4 ± 1.9 | 1561.1 ± 1.9 | 1566.9 ± 1.9

O [water] + CCC[NH3+].O=C[O-]
m2 = 0
Conditions | mass density [kg/m3] | speed of sound [m/s]
313.15 K | – | 1528.9 ± 1.9
318.15 K | – | 1536.6 ± 1.9
323.15 K | 988.031 ± 0.45 | –

O [water] + O=C[C@H](O)[C@@H](O)[C@H](O)[C@H](O)CO
m2 = 0
Conditions | mass density [kg/m3] | speed of sound [m/s]
313.15 K | – | 1528.9 ± 1.9
318.15 K | – | 1536.6 ± 1.9
323.15 K | 988.031 ± 0.45 | –
